For orientation: pIC50 means −log10 of the IC50, conventionally taken in molar units.

The results in this text go back to patent publication US11932658B2 (BRISTOL-MYERS SQUIBB COMPANY, priority 2016, dated 2024).

This assay has as its target T1, PAR4 (Homo sapiens, UniProt Q96RI0).
T1 construct: expressed in transfected cells; host or cells: HEK293 PAR4 Clone 1.2A (BMS Arctic ID 383940)
T1 sequence (Q96RI0 18-385): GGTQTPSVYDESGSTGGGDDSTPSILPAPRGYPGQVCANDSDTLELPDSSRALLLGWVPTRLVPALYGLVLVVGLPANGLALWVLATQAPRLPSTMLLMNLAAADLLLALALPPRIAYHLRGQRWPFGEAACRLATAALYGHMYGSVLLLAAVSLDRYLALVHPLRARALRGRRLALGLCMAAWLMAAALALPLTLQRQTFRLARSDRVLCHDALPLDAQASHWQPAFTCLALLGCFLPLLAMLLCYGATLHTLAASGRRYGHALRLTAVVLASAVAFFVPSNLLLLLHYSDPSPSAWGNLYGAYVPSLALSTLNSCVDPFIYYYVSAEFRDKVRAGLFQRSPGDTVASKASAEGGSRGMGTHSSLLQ
In words: PAR4 FLIPR assay (antagonism of agonist peptide-induced calcium mobilization). Type of assay: cell-based. The procedure, abridged: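 Antagonism was taken as block of calcium mobilization evoked by the agonist peptide H-Ala-Phe(4-F)-Pro-Gly-Trp-Leu-Val-Lys-Asn-[…]-NH2, added after 30 min room-temperature compound preincubation in dye-loaded PAR4-transfected HEK293 cells (endogenous PAR1). Fluorescence was read on FDSS, with compound addition alone used as the agonist counter-screen; values come from 11-point concentration-response curves.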
For orientation: Calcium flux is commonly read through the fluorescence of an indicator in the cells.

Each structure is given as a SMILES string. pIC50: −log10 of the molar value.

Take `COc1cnc2c(-c3nc4c(C)cc5c(c4s3)OC[C@H](COC(=O)Nc3cnc(Cl)nc3)O5)cc(C)cc2n1` [Example 59, (R)-(2-(2-methoxy-7-methylquinoxalin-5-yl)-4-methyl-7,8-dihydro-[1,4]dioxino[2′,3′:3,4]benzo[1,2-d]thiazol-7-yl)methyl (2-chloropyrimidin-5-yl)carbamate]: the pIC50 was 8.08. With `COc1cnc2c(-c3nc4c(Cl)cc5c(c4s3)OC[C@H](COC(=O)Nc3cnc(C)c(C)c3)O5)cc(C)cc2n1` [Example 60, (R)-(4-chloro-2-(2-methoxy-7-methylquinoxalin-5-yl)-7,8-dihydro-[1,4]dioxino[2′,3′:3,4]benzo[1,2-d]thiazol-7-yl)methyl (5,6-dimethylpyridin-3-yl) carbamate], the pIC50 was 8.16.

`COc1cnc2c(-c3nc4c(C)cc5c(c4s3)OC[C@H](COC(=O)Nc3cnc(F)c(C)c3)O5)cc(C)cc2n1` [Example 61, (R)-(2-(2-methoxy-7-methylquinoxalin-5-yl)-4-methyl-7,8-dihydro-[1,4]dioxino [2′,3′:3,4]benzo[1,2-d]thiazol-7-yl)methyl (6-fluoro-5-methylpyridin-3-yl)carbamate]: the pIC50 was 7.64.

Turning to `COc1cnc2c(-c3nc4c(Cl)cc5c(c4s3)OC[C@H](COC(=O)Nc3ccc(C)nc3)O5)cc(C)cc2n1` [Example 62], the pIC50 was 9.00.

In the case of `COc1cnc2c(-c3nc4c(Cl)cc5c(c4s3)OC[C@H](COC(=O)Nc3cncc(C)c3)O5)cc(C)cc2n1` [Example 63], the pIC50 is 8.37. Turning to `COc1cnc2c(-c3nc4c(Cl)cc5c(c4s3)OC[C@H](COC(=O)Nc3cnc(F)c(C)c3)O5)cc(C)cc2n1` [Example 64, (R)-(4-chloro-2-(2-methoxy-7-methylquinoxalin-5-yl)-7,8-dihydro-[1,4]dioxino [2′,3′:3,4]benzo[1,2-d]thiazol-7-yl)methyl (6-fluoro-5-methylpyridin-3-yl)carbamate], the pIC50 was 8.60.

`COc1cnc2c(-c3nc4c(Cl)cc5c(c4s3)OC[C@H](COC(=O)Nc3ccc(N(C)C)nc3)O5)cc(C)cc2n1` [Example 65, (R)-(4-chloro-2-(2-methoxy-7-methylquinoxalin-5-yl)-7,8-dihydro-[1,4]dioxino [2′,3′:3,4]benzo[1,2-d]thiazol-7-yl)methyl (6-(dimethylamino)pyridin-3-yl)carbamate]: the pIC50 is 7.80. In the case of `COc1cnc2c(-c3nc4c(Cl)cc5c(c4s3)OC[C@H](COC(=O)Nc3ccc4[nH]c(=O)oc4c3)O5)cc(C)cc2n1` [Example 66, (R)-(4-chloro-2-(2-methoxy-7-methylquinoxalin-5-yl)-7,8-dihydro-[1,4]dioxino[2′,3′:3,4]benzo[1,2-d]thiazol-7-yl)methyl (2-oxo-2,3-dihydrobenzo[d]oxazol-6-yl)carbamate] it was 8.82; in that of `COc1cnc2c(-c3nc4c(Cl)cc5c(c4s3)OC[C@H](COC(=O)Nc3cnc4c(c3)ncn4C)O5)cc(C)cc2n1` [Example 67, (R)-(4-chloro-2-(2-methoxy-7-methylquinoxalin-5-yl)-7,8-dihydro-[1,4]dioxino[2′,3′:3,4]benzo[1,2-d]thiazol-7-yl)methyl (3-methyl-3H-imidazo[4,5-b]pyridin-6-yl)carbamate], 9.22; in that of `COc1ccc(NC(=O)OC[C@H]2COc3c(cc(F)c4nc(-c5cc(C)cc6nc(OC)cnc56)sc34)O2)cn1` [Example 68, (R)-(4-fluoro-2-(2-methoxy-7-methylquinoxalin-5-yl)-7,8-dihydro-[1,4]dioxino[2′,3′:3,4]benzo[1,2-d]thiazol-7-yl)methyl (6-methoxypyridin-3-yl)carbamate], 9.00. Take `COc1cnc2c(-c3nc4c(Cl)cc5c(c4s3)OC[C@H](COC(=O)Nc3ccc(-n4cnc(C)n4)nc3)O5)cc(C)cc2n1` [Example 69, (R)-(4-chloro-2-(2-methoxy-7-methylquinoxalin-5-yl)-7,8-dihydro-[1,4]dioxino[2′,3′:3,4]benzo[1,2-d]thiazol-7-yl)methyl (6-(3-methyl-1H-1,2,4-triazol-1-yl)pyridin-3-yl) carbamate]: the pIC50 was 8.77. In the case of `COc1cnc2c(-c3nc4c(F)cc5c(c4s3)OC[C@H](COC(=O)Nc3cccnc3)O5)cc(C)cc2n1` [Example 70, (R)-(4-fluoro-2-(2-methoxy-7-methylquinoxalin-5-yl)-7,8-dihydro-[1,4]dioxino[2′,3′:3,4]benzo[1,2-d]thiazol-7-yl)methyl pyridin-3-ylcarbamate], the pIC50 is 7.60. In the case of `COc1cnc2c(-c3nc4c(F)cc5c(c4s3)OC[C@H](COC(=O)Nc3ccc(F)nc3)O5)cc(C)cc2n1` [Example 71, (R)-(4-fluoro-2-(2-methoxy-7-methylquinoxalin-5-yl)-7,8-dihydro-[1,4]dioxino[2′,3′:3,4]benzo[1,2-d]thiazol-7-yl)methyl (6-fluoropyridin-3-yl)carbamate], the pIC50 is 8.54.

For the compound `COc1cnc2c(-c3nc4c(F)cc5c(c4s3)OC[C@H](COC(=O)Nc3cccc(C#N)c3)O5)cc(C)cc2n1` [Example 72, (R)-(4-fluoro-2-(2-methoxy-7-methylquinoxalin-5-yl)-7,8-dihydro-[1,4]dioxino[2′,3′:3,4]benzo[1,2-d]thiazol-7-yl)methyl (3-cyanophenyl)carbamate], the pIC50 was 8.11. Regarding `COc1cnc2c(-c3nc4c(F)cc5c(c4s3)OC[C@H](COC(=O)Nc3ccncc3)O5)cc(C)cc2n1` [Example 73, (R)-(4-fluoro-2-(2-methoxy-7-methylquinoxalin-5-yl)-7,8-dihydro-[1,4]dioxino[2′,3′:3,4]benzo[1,2-d]thiazol-7-yl)methyl pyridin-4-ylcarbamate], the pIC50 is 7.92.

On to `COc1cnc2c(-c3nc4c(C(F)F)cc5c(c4s3)OCC(COC(=O)Nc3ccnc(C)c3)O5)cc(C)cc2n1` (stereo not drawn) [Example 74, (4-(difluoromethyl)-2-(2-methoxy-7-methylquinoxalin-5-yl)-7,8-dihydro-[1,4]dioxino[2′,3′:3,4]benzo[1,2-d]thiazol-7-yl)methyl (2-methylpyridin-4-yl)carbamate], for which the pIC50 was 8.07. Turning to `COc1cnc2c(-c3nc4c(F)cc5c(c4s3)OC[C@H](COC(=O)Nc3ccnc(C)c3)O5)cc(C)cc2n1` [Example 75, (R)-(4-fluoro-2-(2-methoxy-7-methylquinoxalin-5-yl)-7,8-dihydro-[1,4]dioxino[2′,3′:3,4]benzo[1,2-d]thiazol-7-yl)methyl (2-methylpyridin-4-yl)carbamate], the pIC50 was 8.31.

Turning to `COc1cnc2c(-c3nc4c(F)cc5c(c4s3)OC[C@H](COC(=O)Nc3ccc(C)nc3)O5)cc(C)cc2n1` [Example 76, (R)-(4-fluoro-2-(2-methoxy-7-methylquinoxalin-5-yl)-7,8-dihydro-[1,4]dioxino[2′,3′:3,4]benzo[1,2-d]thiazol-7-yl)methyl (6-methylpyridin-3-yl)carbamate], the pIC50 was 8.57. Take `COc1cnc2c(-c3nc4c(C)cc5c(c4s3)OCC(COC(=O)Nc3cncc(C(N)=O)c3)O5)cc(C)cc2n1` (stereo not drawn) [Example 77, (2-(2-methoxy-7-methylquinoxalin-5-yl)-4-methyl-7,8-dihydro-[1,4]dioxino [2′,3′:3,4]benzo[1,2-d]thiazol-7-yl)methyl (5-carbamoylpyridin-3-yl)carbamate]: the pIC50 was 7.82. Next, `COc1cnc2c(-c3nc4c(C)cc5c(c4s3)OCC(COC(=O)Nc3ccc4c(c3)C(=O)NCC4)O5)cc(C)cc2n1` (stereo not drawn) [Example 78, (2-(2-methoxy-7-methylquinoxalin-5-yl)-4-methyl-7,8-dihydro-[1,4]dioxino[2′,3′:3,4]benzo[1,2-d]thiazol-7-yl)methyl (1-oxo-1,2,3,4-tetrahydroisoquinolin-7-yl)carbamate]: 8.07; `COc1cnc2c(-c3nc4c(C)cc5c(c4s3)OCC(COC(=O)Nc3cnc(C)nc3)O5)cc(C)cc2n1` (stereo not drawn) [Example 79, (2-(2-methoxy-7-methylquinoxalin-5-yl)-4-methyl-7,8-dihydro-[1,4]dioxino[2′,3′:3,4]benzo[1,2-d]thiazol-7-yl)methyl (2-methylpyrimidin-5-yl)carbamate]: 7.54. Next, `COc1cnc2c(-c3nc4c(C(F)F)cc5c(c4s3)OC[C@H](COC(=O)Nc3ccc(C)nc3)O5)cc(C)cc2n1` [Example 80, (R)-(4-(difluoromethyl)-2-(2-methoxy-7-methylquinoxalin-5-yl)-7,8-dihydro-[1,4]dioxino[2′,3′:3,4]benzo[1,2-d]thiazol-7-yl)methyl (6-methylpyridin-3-yl)carbamate]: 7.48; `COc1ccc(NC(=O)OC[C@H]2COc3c(cc(C(F)F)c4nc(-c5cc(C)cc6nc(OC)cnc56)sc34)O2)cn1` [Example 81, (R)-(4-(difluoromethyl)-2-(2-methoxy-7-methylquinoxalin-5-yl)-7,8-dihydro-[1,4]dioxino[2′,3′:3,4]benzo[1,2-d]thiazol-7-yl)methyl (6-methoxypyridin-3-yl)carbamate]: 7.41; `COc1cnc2c(-c3nc4c(C)cc5c(c4s3)OCC(COC(=O)Nc3ccc4ocnc4c3)O5)cc(C)cc2n1` (stereo not drawn) [Example 82, (2-(2-methoxy-7-methylquinoxalin-5-yl)-4-methyl-7,8-dihydro-[1,4]dioxino[2′,3′:3,4]benzo[1,2-d]thiazol-7-yl)methyl benzo[d]oxazol-5-ylcarbamate]: 7.26.
